Experimental data taken from PMC12693701, “Glucosinolate-Derived Metabolites from Barbarea vulgaris (Brassicaceae): Evaluation of Antimicrobial, Antioxidant, and Anti-Inflammatory Potentials” (Molecules, 2025).
In brackets after ≈: the same amount, converted by molar mass. Like-named read-outs stand apart in the source and are kept apart here.

Assays:
B. cereus = test: Microdilution MIC/MMC with resazurin; assay type: cell-based, Bacillus cereus; conditions: for MIC: Bacillus cereus
Procedure: (§1) The antimicrobial activity was evaluated against 15 microorganisms. This included 11 bacterial strains: four standard strains (Staphylococcus aureus ATCC 25923, Bacillus subtilis ATCC 6633, Bacillus pumilus NCTC 8241, and Escherichia coli ATCC 25922) and six clinical or environmental isolates (Staphylococcus aureus, Escherichia coli, Bacillus cereus, Proteus mirabilis, Salmonella enterica, and Klebsiella pneumoniae). One probiotic strain, Bifidobacterium animalis subsp. lactis was tested. In addition, four fungal strains, Candida albicans ATCC 10231, Trichoderma viride ATCC 13233, Aspergillus flavus ATCC 9170, and Fusarium solani ATCC 11712 were tested. The bacterial strains were kept in glycerol stock at −80 °C and the fungal strains in paraffin oil stock at 4 °C.
(§2) Bacterial and yeast suspensions were prepared using the direct colony method, as previously described by Andrews. The turbidity of the initial suspensions was adjusted to match the 0.5 McFarland standard using a densitometer (Biosan, Riga, Latvia), corresponding to approximately 10^8 colony-forming units (CFU)/mL for bacterial cells and 10^6 CFU/mL for yeast cells. Subsequently, 1:100 dilutions of the initial suspensions were prepared in sterile 0.85% saline. Fungal spore suspensions were obtained by gently harvesting spores from agar slopes containing mature mycelial growth. The collected spore suspensions were then diluted 1:1000 in sterile 0.85% saline prior to use.
(§3) Antimicrobial activity was evaluated by determining the minimum inhibitory concentration (MIC) and minimum microbicidal concentration (MMC) using the microdilution plate method with resazurin as an indicator [28]. In the 96-well plates, 100 μL of Mueller–Hinton broth (Torlak, Belgrade, Serbia) for bacterial testing and Sabouraud broth (Torlak, Belgrade, Serbia) for fungal testing were dispensed into each well. The compounds under investigation were initially dissolved in a 10% dimethyl sulfoxide (DMSO) solution, followed by dilution in sterile distilled water, resulting in a working compound solution containing 1% DMSO. A 100 μL aliquot of the stock solution of the tested compound was added to the first row, and twofold serial dilutions were then carried out using a multichannel pipette. The resulting concentration range was from 5 to 0.039 mg/mL. The inoculated microtiter plates were incubated at 37 °C for 24 h for bacteria, at 28 °C for 48 h for yeasts, and at 28 °C for 72 h for molds.
(§4) Each test also included growth control and sterility control. All tests were conducted in duplicate. MIC was defined as the lowest concentration of tested compounds that prevented resazurin color change from blue to pink. For molds, MIC values of the tested compound were determined as the lowest concentration that inhibited visible mycelia growth. MMC was determined by inoculation of the nutrient agar medium by plating […] of samples from wells, where no indicator color change was recorded. At the end of the incubation period, the lowest concentration with no growth (no colony) was defined as MMC.
(§5) Doxycycline, ampicillin and amphotericin B (- Sigma-Aldrich, St. Louis, MO, USA) and ketoconazole (Hemofarm A.D., Vršac, Serbia) were dissolved in a nutrient liquid medium. Doxycycline is a broad-spectrum antibiotic effective against both aerobic and anaerobic Gram-positive and Gram-negative bacteria. Ampicillin, a beta-lactam antibiotic, primarily targets Gram-positive bacteria but also some Gram-negative strains. Amphotericin B is an antifungal drug often used for serious systemic fungal infections and is one of the effective treatments for fungal infections caused by Aspergillus sp. Ketoconazole is an antifungal agent used to inhibit the growth of Candida species.

[1] = molecular target: T1, Type I-B soybean lipoxygenase (Glycine max, UniProt P08170); test: LOX inhibition assay; assay type: biochemical; conditions: for inhibition at 100 µM: read-out: Percentage of LOX Inhibition
T1 sequence (P08170 1-839): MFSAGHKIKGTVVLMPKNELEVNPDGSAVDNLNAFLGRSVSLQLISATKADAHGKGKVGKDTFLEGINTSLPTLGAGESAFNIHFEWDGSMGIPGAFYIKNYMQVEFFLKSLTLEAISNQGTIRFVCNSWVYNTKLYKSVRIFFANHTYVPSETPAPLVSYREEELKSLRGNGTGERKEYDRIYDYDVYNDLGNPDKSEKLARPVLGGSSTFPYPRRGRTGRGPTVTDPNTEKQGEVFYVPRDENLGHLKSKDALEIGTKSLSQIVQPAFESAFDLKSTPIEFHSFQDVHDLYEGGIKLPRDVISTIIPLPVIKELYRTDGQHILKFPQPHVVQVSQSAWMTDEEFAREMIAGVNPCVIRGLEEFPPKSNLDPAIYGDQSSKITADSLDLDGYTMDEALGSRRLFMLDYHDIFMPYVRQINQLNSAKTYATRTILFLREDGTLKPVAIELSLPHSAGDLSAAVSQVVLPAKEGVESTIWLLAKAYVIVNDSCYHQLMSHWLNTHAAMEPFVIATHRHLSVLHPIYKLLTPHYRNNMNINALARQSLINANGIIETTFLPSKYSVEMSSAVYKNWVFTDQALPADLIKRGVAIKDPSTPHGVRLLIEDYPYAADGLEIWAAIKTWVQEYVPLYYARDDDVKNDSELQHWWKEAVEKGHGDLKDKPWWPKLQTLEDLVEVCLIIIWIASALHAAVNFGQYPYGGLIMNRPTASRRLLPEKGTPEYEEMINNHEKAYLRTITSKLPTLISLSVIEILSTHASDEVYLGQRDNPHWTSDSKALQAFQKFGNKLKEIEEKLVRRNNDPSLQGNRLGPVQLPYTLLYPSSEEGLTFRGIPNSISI
Procedure: Type I-B soybean lipoxygenase is a commonly used enzyme for studying the anti-inflammatory properties of various compounds [19]. The lipoxygenase (LOX) inhibition assay measures the enzyme’s ability to convert sodium linoleate to 13-hydroperoxylinoleic acid. The inhibition of the enzyme by the investigated compounds was determined by measuring the absorbance at 234 nm for each prepared sample. Specifically, the test compound, Tris buffer, an enzyme solution (5 × 10^3 units/mL in saline), and sodium linoleate (3 mM in Tris buffer, pH 9), were added to a UV cuvette, and the absorbance was recorded. […] All measurements were performed in triplicate.

P. mirabilis = test: Microdilution MIC/MMC with resazurin; assay type: cell-based, Proteus mirabilis; conditions: for MIC: Proteus mirabilis
Procedure: as §1, §2, §3, §4, §5

B. pumilus NCTC 8241 = test: Microdilution MIC/MMC with resazurin; assay type: cell-based, Bacillus pumilus; conditions: for MIC: Bacillus pumilus, NCTC8241
Procedure: as §1, §2, §3, §4, §5

A. flavus ATCC 9170 = test: Microdilution MIC/MMC; assay type: cell-based, Aspergillus flavus
Procedure: as §1, §2, §3, §4, §5

F. solani ATCC 11712 = test: Microdilution MIC/MMC; assay type: cell-based, Fusarium solani
Procedure: as §1, §2, §3, §4, §5

S. enterica = test: Microdilution MIC/MMC with resazurin; assay type: cell-based, Salmonella enterica; conditions: compounds 1–8; for MIC: Salmonella enterica
Procedure: as §1, §2, §3, §4, §5

[2] = B. cereus, compounds 1–8, read-out: MIC
[3] = P. mirabilis, compounds 1–8, read-out: MIC
[4] = B. pumilus NCTC 8241, compounds 1–8
[5] = B. pumilus NCTC 8241, compounds 1–8, read-out: MIC
[6] = A. flavus ATCC 9170, compounds 1–8
[7] = Aspergillus flavus, ATCC9170, A. flavus ATCC 9170, compounds 1–8, read-out: MIC
[8] = F. solani ATCC 11712, compounds 1–8
[9] = Fusarium solani, ATCC11712, F. solani ATCC 11712, compounds 1–8, read-out: MIC

Structure (SMILES)	MMC (B. cereus; B. cereus, compounds 1–8) [mg/mL]	MIC (B. cereus; [2]) [µg/mL]	inhibition at 100 µM ([1]; 100 µM, mean ± SD) [%]	MMC (P. mirabilis; P. mirabilis, compounds 1–8) [mg/mL]	MIC (P. mirabilis; [3]) [µg/mL]	MMC (B. pumilus NCTC 8241; [4]) [mg/mL]	MIC (B. pumilus NCTC 8241; [5]) [µg/mL]	MMC (A. flavus ATCC 9170; [6]) [mg/mL]	MIC (A. flavus ATCC 9170; [7]) [µg/mL]	MMC (F. solani ATCC 11712; [8]) [mg/mL]	MIC (F. solani ATCC 11712; [9]) [µg/mL]	MIC (S. enterica) [µg/mL]	MMC (S. enterica) [mg/mL]	further results
S=C1NC[C@H](c2ccccc2)O1 [Compound 5, (S)-5-phenyl-1,3-oxazolidine-2-thione]	>5	> 5000	40 ± 0.5	5	5000 (≈ 27.9 mM)	5	2500 (≈ 13.9 mM)	>5	> 5000	>5	5000 (≈ 27.9 mM)	5000 (≈ 27.9 mM)	>5	IC50 ([1]; mean ± SD): 123 ± 1.5 µM
O=C1NCC(c2ccccc2)S1 (stereo not shown) [Compound 6, 5-phenyl-1,3-thiazolidin-2-one]	>5	> 5000	34.6 ± 0.4	>5	> 5000	>5	> 5000	>5	> 5000	>5	> 5000	> 5000	>5	–
O=C1NCC(c2ccccc2)O1 (stereo not shown) [Compound 7, 5-Phenyl-1,3-oxazolidin-2-one]	5	5000 (≈ 30.6 mM)	18.3 ± 0.3	2.5	2500 (≈ 15.3 mM)	5	5000 (≈ 30.6 mM)	2.5	2500 (≈ 15.3 mM)	2.5	2500 (≈ 15.3 mM)	1250 (≈ 7.66 mM)	2.5	–
Oc1ccc(CCN=C=S)cc1 [Compound 8, 2-(4-hydroxyphenyl)ethyl isothiocyanate]	1.25	–	–	0.625	–	0.156	–	<0.039	–	<0.039	–	312 (≈ 1.74 mM)	1.25	MIC (B. cereus): 156 µg/mL (≈ 0.87 mM); inhibition at 100 µM [1]: 21.2 ± 0.3%; MIC (P. mirabilis): 156 µg/mL (≈ 0.87 mM); MIC (B. pumilus NCTC 8241): 156 µg/mL (≈ 0.87 mM); MIC (A. flavus ATCC 9170; [6]): <39 µg/mL; MIC (A. flavus ATCC 9170; Aspergillus flavus, ATCC9170): < 39 µg/mL; MIC (F. solani ATCC 11712; [8]): <39 µg/mL; MIC (F. solani ATCC 11712; Fusarium solani, ATCC11712): < 39 µg/mL
